Read-outs that look alike come from different tables or passages of the source.
Legend:
human CA-II = target: T1, human CA-II (Homo sapiens, UniProt P00918); assay: Carbonic Anhydrase-II (CA-II) Fluorimetric Assay-IC50 Determination; type: biochemical; conditions: for IC50: Kd ND, read-out: CA-II IC50
T1 construct: purchased Sigma-Aldrich C6165
Summary of the method: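 Enzyme activity is read fluorimetrically at 25° C (ex 488 nm / em 538 nm) as the rate at which human CA-II hydrolyses fluorescein diacetate. The buffer is Tris/HCl (50 mM, pH 7.6) with 100 mM Na2SO4 and 0.005% Tween-20. Inhibitors run in duplicate over 11 threefold dilutions, […]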

human CA-IV = target: T2, human CA-IV (Homo sapiens, UniProt P22748); assay: Carbonic Anhydrase-IV (CA-IV) Fluorescence Polarization Assay-IC50 Determination; type: binding; conditions: for inhibition at 0.2 µM: CA-IV Min dose 200 nM, read-out: CA-IV: % Inh @ Min dose
T2 construct: made in house; host or cells: Escherichia coli BL21(DE3)
Procedure: Carbonic Anhydrase-IV (CA-IV) Fluorescence Polarization Assay-IC50 Determination
These cells were grown in Luria broth (LB) media (Biomyx) supplemented with 800 uM ZnCl2 at 37° C. until an O.D.600 of 0.7, at which point the cells were induced with 100 uM isopropyl-beta-D-thiogalactopyranoside (IPTG) for 20 hours at 20° C. The frozen pellet was resuspended in 50mM 2-morpholinoethanesulfonic acid (MES) at pH 6.0, 100 mM NaCl, 800 uM ZnCl2 and EDTA-Free protease inhibitors (Roche). The cells were lysed with a microfluidizer, the lysate was spun at 40,000 rpm for 45 minutes at 4° C., and the soluble fraction was dialyzed overnight at 4° C. in 50 mM MES pH 6.0, and 100 mM NaCl. The soluble fraction was then put over a 100 ml SP-Sepharose High Performance (GE Healthcare) column and eluted with a 50 mM MES pH 6.0, 750 mM NaCl gradient. The peak fractions were then concentrated, via an Amicon Ultra-4 10,000 MWCO (Millipore) spin column to 2.0 mL and loaded onto a Sephacryl S-100 High Resolution (GE Healthcare) column in 25 mM tris(hydroxymethyl)aminomethane hydrochloride (Tris-HCl) pH 7.0, and 100 mM NaCl. The peak fractions were then concentrated, via an Amicon Ultra-4 10,000 MWCO (Millipore) spin column, to 7.0 mg/mL and left exposed at room temperature overnight. […] T.; et al. Carbonic Anhydrase Inhibitors. Med. Res. Rev. […]
Assays were conducted in a final volume of 100 μL in 50 mM Tris/HCl (pH 7.6), 100 mM Na2SO4 and 0.005% Tween-20 in a 96-well black assay plate.

[1] = CA II Min dose 100 nM, read-out: CAII % Inh @ Min dose

T2 sequence (P22748 19-284 limits assumed): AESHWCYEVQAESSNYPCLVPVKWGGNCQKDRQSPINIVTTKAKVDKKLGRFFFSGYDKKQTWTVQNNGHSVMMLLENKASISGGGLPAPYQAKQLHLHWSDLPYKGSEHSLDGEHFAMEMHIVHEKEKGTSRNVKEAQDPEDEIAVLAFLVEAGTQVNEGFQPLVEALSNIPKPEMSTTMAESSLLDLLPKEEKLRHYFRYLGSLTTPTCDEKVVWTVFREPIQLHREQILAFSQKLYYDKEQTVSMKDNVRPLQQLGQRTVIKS

SMILES | inhibition at 0.1 µM (human CA-II; [1]) [%] | inhibition at 0.2 µM (human CA-IV) [%] | IC50 (human CA-IV; read-out: CA-IV IC50) [nM] | IC50 (human CA-IV; read-out: IC50_CAIV) [nM] | also measured
NS(=O)(=O)c1ccc(-n2nc(C(=O)N3CCCCC3)nc2Cc2ccccc2)cc1 [Example R-24, 4-[5-benzyl-3-(piperidin-1-ylcarbonyl)-1H-124-triazol-1-yl]benzenesulfonamide] | 99 | 48.6 | 360 | – | IC50 (human CA-II): 3.73 nM
CCCCN(CC)C(=O)c1nc(Cc2ccccc2)n(-c2ccc(S(N)(=O)=O)cc2)n1 [Example R-14, 1-(4-(aminosulfonyl)phenyl]-5-benzyl-N-butyl-N-ethyl-1H-124-triazole-3-carboxamide] | 100 | 59.7 | 215 | – | inhibition at 0.1 µM (human CA-II; read-out: CA-II % at 100 nM): 100%
CN(C(=O)c1nc(Cc2ccccc2)n(-c2ccc(S(N)(=O)=O)cc2)n1)C1CCCCC1 [Example R-25, 1-[4-(aminosulfonyl)phenyl]-5-benzyl-N-cyclohexyl-N-methyl-1H-124-triazole-3-carboxamide] | 101 | 69.3 | 385 | – | IC50 (human CA-II): 2.51 nM
CN(CC(O)c1ccccc1)C(=O)c1nc(Cc2ccccc2)n(-c2ccc(S(N)(=O)=O)cc2)n1 (centres unmarked) [Example R-9, 1-[4-(aminosulfonyl)phenyl]-5-benzyl-N-(2-hydroxy-2-phenylethyl)-N-methyl-1H-124-triazole-3-carboxamide] | 99 | 58 | 198 | – | inhibition at 0.1 µM (human CA-II; read-out: CA-II % at 100 nM): 99%
CCCN(CC1CC1)C(=O)c1nc(Cc2ccccc2)n(-c2ccc(S(N)(=O)=O)cc2)n1 [Example R-5, 1-[4-(aminosulfonyl)phenyl]-5-benzyl-N-(cyclopropylmethyl)-N-propyl-1H-124-triazole-3-carboxamide] | 100 | 66.4 | 167 | – | IC50 (human CA-II): 2.18 nM
NS(=O)(=O)c1ccc(-n2nc(C(=O)N3CC4CCC3C4)nc2Cc2ccccc2)cc1 (centres unmarked) [Example R-8, 4-[3-(2-azabicyclo[2.2.1]hept-2-ylcarbonyl)-5-benzyl-1H-124-triazol-1-yl]benzenesulfonamide] | 99 | 56.9 | 194 | – | inhibition at 0.1 µM (human CA-II; read-out: CA-II % at 100 nM): 99%
NS(=O)(=O)c1ccc(-n2nc(C(=O)NCC3(c4ccccc4)CC3)nc2Cc2ccccc2)cc1 [Example R-12, 1-[4-(aminosulfonyl)phenyl]-5-benzyl-N-[(1-phenylcyclopropyl)methyl]-1H-124-triazole-3-carboxamide] | 101 | 62.3 | 206 | – | inhibition at 0.1 µM (human CA-II; read-out: CA-II % at 100 nM): 101%
CCCCCN(CCO)C(=O)c1nc(Cc2ccccc2)n(-c2ccc(S(N)(=O)=O)cc2)n1 [Example R-16, 1-[4-(aminosulfonyl)phenyl]-5-benzyl-N-(2-hydroxyethyl)-N-pentyl-1H-124-triazole-3-carboxamide] | 100 | 61.3 | 220 | – | inhibition at 0.1 µM (human CA-II; read-out: CA-II % at 100 nM): 100%
CC(=O)N1CCCN(C(=O)c2nc(Cc3ccccc3)n(-c3ccc(S(N)(=O)=O)cc3)n2)CC1 [Example R-18, 4-(3-[(4-acetyl-14-diazepan-1-yl)carbonyl]-5-benzyl-1H-124-triazol-1-yl)benzenesulfonamide] | 96 | 56.9 | 274 | – | inhibition at 0.1 µM (human CA-II; read-out: CA-II % at 100 nM): 98%
NS(=O)(=O)c1ccc(-n2nc(CN3CC=CCC3)cc2Cc2ccccc2)c(F)c1 [QQ-1g, 4-[5-benzyl-3-(3,6-dihydropyridin-1(2H)-ylmethyl)-1H-pyrazol-1-yl]-3-fluorobenzenesulfonamide] | – | – | – | 354 | –
CN(Cc1cc(Cc2ccccc2)n(-c2ccc(S(N)(=O)=O)cc2)n1)C1CCCCC1 [QQ-1m, 4-(5-benzyl-3-{[cyclohexyl(methyl)amino]methyl}-1H-pyrazol-1-yl)benzenesulfonamide] | – | – | – | 314 | –
Cc1cc(C(=O)O)nn1-c1ccc(S(N)(=O)=O)cc1 [mm-2a, 1-[4-(aminosulfonyl)phenyl]-5-methyl-1H-pyrazole-3-carboxylic acid] | – | – | – | ≥ 5000 | –
CCNC(=O)c1cc(C)n(-c2ccc(S(N)(=O)=O)cc2C(=O)NCc2ccncc2)n1 [KK-1o, 1-[4-(aminosulfonyl)-2-{[(pyridin-4-ylmethyl)amino]carbonyl}phenyl]-N-ethyl-5-methyl-1H-pyrazole-3-carboxamide] | – | – | – | 4530 | –
NS(=O)(=O)c1ccc(-n2nc(C(F)(F)F)c3c2CCNC3)c(C(=O)NCc2ccncc2)c1 [KK-1n, 5-(aminosulfonyl)-N-(pyridin-4-ylmethyl)-2-[3-(trifluoromethyl)-4,5,6,7-tetrahydro-1H-pyrazolo[4,3-c]pyridin-1-yl]benzamide] | – | – | – | > 5000 | –
CCCN(C)Cc1cc(Cc2ccccc2)n(-c2ccc(S(N)(=O)=O)cc2F)n1 [QQ-1, 4-(5-benzyl-3-{[methyl(propyl)amino]methyl}-1H-pyrazol-1-yl)-3-fluorobenzenesulfonamide] | – | – | – | 301 | –
CCNC(=O)c1cc(C)n(-c2ccc(S(N)(=O)=O)cc2C(=O)OC(C)C)n1 [KK-1r] | – | – | – | 1310 | –
CN(CCC#N)C(=O)c1nc(Cc2ccccc2)n(-c2ccc(S(N)(=O)=O)cc2)n1 [Example R-10] | 99 | 58 | 202 | – | inhibition at 0.1 µM (human CA-II; read-out: CA-II % at 100 nM): 99%
CCNC(=O)c1cc(C)n(-c2ccc(S(N)(=O)=O)cc2C(=O)NCC)n1 [KK-1m, 1-{4-(aminosulfonyl)-2-[(ethylamino)carbonyl]phenyl}-N-ethyl-5-methyl-1H-pyrazole-3-carboxamide] | – | – | – | > 5000 | –
C[C@@H]1CN(Cc2cc(Cc3ccccc3)n(-c3ccc(S(N)(=O)=O)cc3F)n2)C[C@H](C)O1 [QQ-1i, 4-(5-benzyl-3-{[(2R,6S)-2,6-dimethylmorpholin-4-yl]methyl}-1H-pyrazol-1-yl)-3-fluorobenzenesulfonamide] | – | – | – | 480 | –
NS(=O)(=O)c1ccc(-n2nc(CO)cc2Cc2ccccc2)c(F)c1 [qq-3, 4-[5-Benzyl-3-(hydroxymethyl)-1H-pyrazol-1-yl]-3-fluorobenzenesulfonamide] | – | – | – | 372 | –
CN(Cc1cc(Cc2ccccc2)n(-c2ccc(S(N)(=O)=O)cc2F)n1)C1CCCCC1 [Example -1h, 4-(5-benzyl-3-{[cyclohexyl(methyl)amino]methyl}-1H-pyrazol-1-yl)-3-fluorobenzenesulfonamide] | – | – | – | 186 | –
C[C@@H]1CN(Cc2cc(Cc3ccccc3)n(-c3ccc(S(N)(=O)=O)cc3)n2)C[C@H](C)O1 [QQ-1d, 4-(5-benzyl-3-{[(2R,6S)-2,6-dimethylmorpholin-4-yl]methyl}-1H-pyrazol-1-yl)benzenesulfonamide] | – | – | – | 400 | –
CCCN(C)Cc1cc(Cc2ccccc2)n(-c2ccc(S(N)(=O)=O)cc2)n1 [QQ-1e, 4-(5-benzyl-3-{[methyl(propyl)amino]methyl}-1H-pyrazol-1-yl)benzenesulfonamide] | – | – | – | 379 | –
NS(=O)(=O)c1ccc(-n2nc(C(F)(F)F)c3c2CCNC3)c(C(=O)NCc2ccccc2)c1 [KK-1p, 5-(aminosulfonyl)-N-benzyl-2-[3-(triflurormethyl)-4,5,6,7-tetrahydro-1H-pyrazolo[4,3-c]pyridin-1-yl]benzamide] | – | – | – | > 5000 | –
Cc1cccc(Cc2cc(CN3CCCC(C#N)C3)nn2-c2ccc(S(N)(=O)=O)cc2F)c1 (centres unmarked) [PP-1a, 4-[3-[(3-cyanopiperidin-1-yl)methyl]-5-(3-methylbenzyl)-1H-pyrazol-1-yl]-3-fluorobenzenesulfonamide] | – | – | – | 168 | –
NS(=O)(=O)c1ccc(-n2nc(CO)cc2Cc2ccc(Br)cc2)c(F)c1 [qq-3c, 4-[5-(4-bromobenzyl)-3-(hydroxymethyl)-1H-pyrazol-1-yl]-3-fluorobenzenesulfonamide] | – | – | – | 468 | –
CCCCN(C)Cc1cc(Cc2ccc(Cl)cc2)n(-c2ccc(S(N)(=O)=O)cc2)n1 [QQ-1n, 4-[3-{[butyl(methyl)amino]methyl}-5-(4-chlorobenzyl)-1H-pyrazol-1-yl]benzenesulfonamide] | – | – | – | 455 | –
COCCN(C)Cc1cc(Cc2cccc(C)c2)n(-c2ccc(S(N)(=O)=O)cc2F)n1 [PP-1b, 3-fluoro-4-[3-{[(2-methoxyethyl)(methyl)amino]methyl}-5-(3-methylbenzyl)-1H-pyrazol-1-yl]benzenesulfonamide] | – | – | – | 145 | –
CCCCN(C)Cc1cc(Cc2ccccc2)n(-c2ccc(S(N)(=O)=O)cc2F)n1 [QQ-1j, 4-(5-benzyl-3-{[butyl(methyl)amino]methyl}-1H-pyrazol-1-yl)-3-fluorobenzenesulfonamide] | – | – | – | 278 | –

From patent US20100256357A1, “HETEROCYCLES USEFUL AS INHIBITORS OF CARBONIC ANHYDRASE” (Agouron Pharmaceuticals, Inc., priority 2006, published 2010)
